Assay results from patent publication US20230167122A1, “PESTICIDALLY ACTIVE HETEROCYCLIC DERIVATIVES WITH SULFUR CONTAINING SUBSTITUENTS” (SYNGENTA CROP PROTECTION AG, priority 2020, published 2023).

How the values were obtained:
Type in all cases: in vivo
[1] = tested on: Myzus persicae (Green Peach Aphid); experiment: Example B6: Activity against Myzus persicae (green peach aphid), sprayed sunflower leaf discs; settings: foliar, 144 h, application rate of 200 ppm, aphid population of mixed ages on sunflower leaf discs, 6 days after infestation
Protocol: Example B6: Activity Against Myzus persicae (Green Peach Aphid)
(§1) Sunflower leaf discs were placed on agar in a 24-well microtiter plate and sprayed with aqueous test solutions prepared from 10′000 ppm DMSO stock solutions. After drying, the leaf discs were infested with an aphid population of mixed ages. The samples were assessed for mortality 6 days after infestation.

[2] = tested on: Spodoptera littoralis (Egyptian Cotton Leaf Worm); experiment: Example B9: Activity against Spodoptera littoralis (Egyptian cotton leaf worm), sprayed cotton leaf discs; settings: foliar, 72 h, application rate of 200 ppm, L1 larvae on cotton leaf discs, 3 days after infestation
Protocol: Example B9: Activity Against Spodoptera littoralis (Egyptian Cotton Leaf Worm)
Cotton leaf discs were placed onto agar in 24-well microtiter plates and sprayed with aqueous test solutions prepared from 10′000 ppm DMSO stock solutions. After drying the leaf discs were infested with five L1 larvae. The samples were assessed for mortality, anti-feeding effect, and growth inhibition in comparison to untreated samples 3 days after infestation. Control of Spodoptera littoralis by a test sample is given when at least one of the categories mortality, anti-feedant effect, and growth inhibition is higher than the untreated sample.

[3] = tested on: Euschistus heros (Neotropical Brown Stink Bug); experiment: Example B3: Activity against Euschistus heros (neotropical brown stink bug), sprayed soybean leaf; settings: 120 h, application rate of 200 ppm, N-2 nymphs on soybean leaf, 5 days after infestation, read-out: effect in at least one of the two categories (mortality or growth inhibition)
Protocol: Example B3: Activity Against Euschistus heros (Neotropical Brown Stink Bug)
Soybean leaf on agar in 24-well microtiter plates were sprayed with aqueous test solutions prepared from 10′000 ppm DMSO stock solutions. After drying the leaf were infested with N-2 nymphs. The samples were assessed for mortality and growth inhibition in comparison to untreated samples 5 days after infestation.

[4] = tested on: Diabrotica balteata (Corn Root Worm); experiment: Example B2: Activity against Diabrotica balteata (corn root worm), sprayed maize sprouts; settings: 96 h, application rate of 200 ppm, L2 larvae on maize sprouts, 4 days after infestation, read-out: effect in at least one of the two categories (mortality or growth inhibition)
Protocol: Example B2: Activity Against Diabrotica balteata (Corn Root Worm)
Maize sprouts placed onto an agar layer in 24-well microtiter plates were treated with aqueous test solutions prepared from 10′000 ppm DMSO stock solutions by spraying. After drying, the plates were infested with L2 larvae (6 to 10 per well). The samples were assessed for mortality and growth inhibition in comparison to untreated samples 4 days after infestation.

[5] = tested on: Frankliniella occidentalis (Western Flower Thrips); experiment: Example B4: Activity against Frankliniella occidentalis (western flower thrips), sprayed sunflower leaf discs; settings: foliar, 168 h, application rate of 200 ppm, population of mixed ages on sunflower leaf discs, 7 days after infestation
Protocol: Example B4: Activity Against Frankliniella occidentalis (Western Flower Thrips)
as §1, with “in” for “in a”, “plates” for “plate”, “[…]” for “10′000 ppm”, “drying” for “drying,”, “a Frankliniella” for “an aphid”, “7” for “6”

[6] = tested on: Plutella xylostella (Diamond Back Moth); experiment: Example B5: Activity against Plutella xylostella (diamond back moth), eggs, artificial diet; settings: 192 h, application rate of 200 ppm, 8 days after infestation, read-out: effect in at least one of the two categories (mortality or growth inhibition)
Protocol: Example B5: Activity Against Plutella xylostella (Diamond Back Moth)
24-well microtiter plates with artificial diet were treated with aqueous test solutions prepared from 10′000 ppm DMSO stock solutions by pipetting. After drying, Plutella eggs were pipetted through a plastic stencil onto a gel blotting paper and the plate was closed with it. The samples were assessed for mortality and growth inhibition in comparison to untreated samples 8 days after infestation.

[7] = tested on: Bemisia tabaci (Cotton White Fly); experiment: Example B1: Activity against Bemisia tabaci (cotton white fly), sprayed cotton leaf discs; settings: foliar, 144 h, application rate of 200 ppm, adult white flies on cotton leaf discs, 6 days after incubation
Protocol: Example B1: Activity Against Bemisia tabaci (Cotton White Fly)
Cotton leaf discs were placed on agar in 24-well microtiter plates and sprayed with aqueous test solutions prepared from 10′000 ppm DMSO stock solutions. After drying the leaf discs were infested with adult white flies. The samples were checked for mortality 6 days after incubation.

[8] = tested on: Plutella xylostella (Diamond Back Moth); experiment: Example B8: Activity against Plutella xylostella (diamond back moth), L2 larvae, artificial diet; settings: 120 h, application rate of 200 ppm, 5 days after infestation, read-out: effect in at least one of the two categories (mortality or growth inhibition)
Protocol: Example B8: Activity Against Plutella xylostella (Diamond Back Moth)
24-well microtiter plates with artificial diet were treated with aqueous test solutions prepared from 10′000 ppm DMSO stock solutions by pipetting. After drying, the plates were infested with L2 larvae (10 to 15 per well). The samples were assessed for mortality and growth inhibition in comparison to untreated samples 5 days after infestation.

CCS(=O)(=O)c1cc(OC(C)(C)C#N)cnc1-c1nc2cc(C(F)(F)F)cnc2n1C [Compound P3, 2-[[5-ethylsulfonyl-6-[3-methyl-6-(trifluoromethyl)imidazo[4,5-b]pyridin-2-yl]-3-pyridyl]oxy]-2-methyl-propanenitrile]
≥ 80%: mortality at 200 ppm [1] | percent control (mortality, anti-feedant effect or growth inhibition) at 200 ppm [2] | percent effect (mortality or growth inhibition) at 200 ppm [3] | percent effect (mortality or growth inhibition) at 200 ppm [4] | mortality at 200 ppm [5] | percent effect (mortality or growth inhibition) at 200 ppm [6] | mortality at 200 ppm [7]

CCS(=O)(=O)c1cc(OC(C)(C)C#N)ccc1-c1nc2cc(C(F)(F)F)nnc2n1C [Compound P12, 2-[3-ethylsulfonyl-4-[7-methyl-3-(trifluoromethyl)imidazo[4,5-c]pyridazin-6-yl]phenoxy]-2-methyl-propanenitrile]
≥ 80%: mortality at 200 ppm [1] | percent control (mortality, anti-feedant effect or growth inhibition) at 200 ppm [2] | percent effect (mortality or growth inhibition) at 200 ppm [3] | percent effect (mortality or growth inhibition) at 200 ppm [8] | percent effect (mortality or growth inhibition) at 200 ppm [4] | mortality at 200 ppm [5] | mortality at 200 ppm [7]

CCS(=O)(=O)c1cc(OC(C)(C)C#N)cnc1-c1nc2cc(C(F)(F)F)n(C3CC3)c(=O)c2n1C [Compound P7, 2-[[6-[5-cyclopropyl-3-methyl-4-oxo-6-(trifluoromethyl)imidazo[4,5-c]pyridin-2-yl]-5-ethylsulfonyl-3-pyridyl]oxy]-2-methyl-propanenitrile]
≥ 80%: percent control (mortality, anti-feedant effect or growth inhibition) at 200 ppm [2] | percent effect (mortality or growth inhibition) at 200 ppm [3] | percent effect (mortality or growth inhibition) at 200 ppm [8] | percent effect (mortality or growth inhibition) at 200 ppm [4] | mortality at 200 ppm [5]

CCn1c(C(F)(F)F)cc2nc(-c3ncc(OC(C)(C)C#N)cc3S(=O)(=O)CC)n(C)c2c1=O [Compound P6, 2-[[6-[5-ethyl-3-methyl-4-oxo-6-(trifluoromethyl)imidazo[4,5-c]pyridin-2-yl]-5-ethylsulfonyl-3-pyridyl]oxy]-2-methyl-propanenitrile]
≥ 80%: mortality at 200 ppm [1] | percent control (mortality, anti-feedant effect or growth inhibition) at 200 ppm [2] | percent effect (mortality or growth inhibition) at 200 ppm [3] | percent effect (mortality or growth inhibition) at 200 ppm [8] | percent effect (mortality or growth inhibition) at 200 ppm [4] | mortality at 200 ppm [5] | mortality at 200 ppm [7]

CCS(=O)(=O)c1cc(OC(C)(C)C#N)cnc1-c1nc2cc(SC(F)(F)F)ccc2n1C [Compound P13, 2-[[5-ethylsulfonyl-6-[1-methyl-5-(trifluoromethylsulfanyl)benzimidazol-2-yl]-3-pyridyl]oxy]-2-methyl-propanenitrile]
≥ 80%: mortality at 200 ppm [1] | percent control (mortality, anti-feedant effect or growth inhibition) at 200 ppm [2] | percent effect (mortality or growth inhibition) at 200 ppm [3] | percent effect (mortality or growth inhibition) at 200 ppm [4] | mortality at 200 ppm [5] | percent effect (mortality or growth inhibition) at 200 ppm [6] | mortality at 200 ppm [7]

CCS(=O)(=O)c1cc(OC(C)(C)C#N)cnc1-c1nc2cc(S(=O)(=O)C(F)(F)F)ccc2n1C [Compound P14, 2-[[5-ethylsulfonyl-6-[1-methyl-5-(trifluoromethylsulfonyl)benzimidazol-2-yl]-3-pyridyl]oxy]-2-methyl-propanenitrile]
≥ 80%: mortality at 200 ppm [1] | percent control (mortality, anti-feedant effect or growth inhibition) at 200 ppm [2] | percent effect (mortality or growth inhibition) at 200 ppm [3] | percent effect (mortality or growth inhibition) at 200 ppm [4] | mortality at 200 ppm [5] | percent effect (mortality or growth inhibition) at 200 ppm [6] | mortality at 200 ppm [7]
